Data from PMC2674504, “Foam nest components of the túngara frog: a cocktail of proteins conferring physical and biological resilience” (Proceedings of the Royal Society B: Biological Sciences, 2009).
Where a SMILES comes first, the peptide text is derived from it. The star is where a group is joined. AMC = Cc1cc(=O)oc2cc(N*)ccc12; Cbz = O=C(OCc1ccccc1)*

How the values were obtained:
[1] = target: T1, Rsn-4 (Engystomops pustulosus, UniProt B5DCK4); experiment: haemagglutination inhibition (human erythrocytes); lactose-agarose affinity chromatography eluted with […] lactose; format: binding; details: 20 mM sugar; 10 mM HEPES, 150 mM NaCl, 2 mM CaCl2; room temperature
T1 construct: dimer or higher order
T1 sequence (B5DCK4 20-193): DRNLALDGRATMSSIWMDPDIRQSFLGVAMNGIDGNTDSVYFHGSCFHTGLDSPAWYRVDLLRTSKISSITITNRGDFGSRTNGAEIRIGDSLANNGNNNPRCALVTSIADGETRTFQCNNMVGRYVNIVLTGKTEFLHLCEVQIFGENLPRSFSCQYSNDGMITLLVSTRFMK

[2] = target: T2, papain (Carica papaya, UniProt P00784); experiment: fluorogenic proteolysis assay (ex […] nm, em […] nm); format: biochemical; details: 0.1 M acetate pH 5.0, 10 mM dithiothreitol, 2 mM EDTA, 30 °C; mere turnover
T2 construct: commercial enzyme from papaya latex (Sigma)
T2 sequence (P00784 134-345): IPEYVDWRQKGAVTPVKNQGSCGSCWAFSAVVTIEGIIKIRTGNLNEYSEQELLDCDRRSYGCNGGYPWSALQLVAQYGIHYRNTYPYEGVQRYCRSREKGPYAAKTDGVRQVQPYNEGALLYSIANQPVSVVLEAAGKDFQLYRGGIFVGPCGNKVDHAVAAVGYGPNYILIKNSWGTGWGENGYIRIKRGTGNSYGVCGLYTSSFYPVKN

[3] = target: T1, Rsn-4; experiment: haemagglutination inhibition (human erythrocytes); format: cell-based; details: 20 mM sugar; 10 mM HEPES, 150 mM NaCl, 2 mM CaCl2; room temperature; protein refolded in buffer with 20 mM galactose

For `OC[C@H]1O[C@@H](O[C@H]2[C@H](O)[C@@H](O)C(O)O[C@@H]2CO)[C@H](O)[C@@H](O)[C@H]1O` (stereo partly drawn) [lactose], the “haemagglutination inhibition (human erythrocytes); lactose-agarose affinity chro” value [1] was “Rsn-4 could be inhibited with lactose and galactose”.
In the case of `Cc1cc(=O)oc2cc(NC(=O)[C@H](CCCNC(=N)N)NC(=O)[C@H](Cc3ccccc3)NC(=O)OCc3ccccc3)ccc12` [Z-Phe-Arg 7-amido-4-methylcoumarin] (Cbz-Phe-Arg-{AMC}), the “fluorogenic proteolysis assay (ex 370 nm, em 470 nm)” value [2] is reported as “papain) was investigated using fluorogenic or chromogenic substrates, Z-Phe-Arg 7-amido-4-methylcoumarin”.
`OC[C@H]1OC(O)[C@H](O)[C@@H](O)[C@H]1O` (stereo partly drawn) [galactose] was tested, and the “haemagglutination inhibition (human erythrocytes)” value [3] was “agglutination by Rsn-4 was unaffected by fucose but completely inhibited by galactose”.
